Where two headings read alike, the source gives them in different places. Values belong to the compound of their own block, whether it stands above or below them.
How the values were obtained:
5-HT1A receptor = biological target: T1, 5-HT1A receptor (Mus musculus, UniProt Q64264); test: [35S]GTPγS binding in response to 5-HT1A receptor stimulation; assay type: biochemical, mice; settings: 50 μM agonist
T1 construct: Fresh cryostat sections (12 μm) from wild-type, p11 KO and p11 transgenic mice; from tissue; host or cells: mouse brain cryostat sections
T1 sequence (Q64264 1-421): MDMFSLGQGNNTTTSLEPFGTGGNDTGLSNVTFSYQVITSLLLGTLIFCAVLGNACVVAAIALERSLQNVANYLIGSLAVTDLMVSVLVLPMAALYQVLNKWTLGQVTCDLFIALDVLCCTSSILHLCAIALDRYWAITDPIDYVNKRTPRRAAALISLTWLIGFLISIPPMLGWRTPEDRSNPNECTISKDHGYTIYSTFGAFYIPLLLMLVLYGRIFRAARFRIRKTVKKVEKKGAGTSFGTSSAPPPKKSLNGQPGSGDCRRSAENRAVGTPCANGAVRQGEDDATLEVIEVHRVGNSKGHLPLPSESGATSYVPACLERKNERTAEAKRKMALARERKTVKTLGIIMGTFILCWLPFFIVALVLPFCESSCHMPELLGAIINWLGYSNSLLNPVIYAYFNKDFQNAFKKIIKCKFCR
Procedure: (§1) Fresh cryostat sections (12 μm) from wild-type, p11 KO and p11 transgenic mice are preincubated for 30 min in Tris-HCl 50 mM (pH 7.4) supplemented with 100 mM NaCl, […] 3 mM MgCl2, 0.2 mM EGTA, 2 mM GDP and 1 U/ml adenosine deaminase to remove endogenous adenosine. The sections are thereafter incubated for two hours at 25° C. in the same solution containing 40 pM [^35S]GTP S, with (stimulation condition) or without (basal condition) 50 μM of the 5-HT1A receptor agonist, 8-OH-DPAT, or the 5-HT1B receptor agonist, anpirtoline. Non-specific labeling (background) is determined on autoradiographs from adjacent sections incubated with 10 μM of unlabeled GTP S. Sections are rinsed twice (3 min each) in 50 mM Tris-HCl buffer, once (30 sec) in distilled water to remove the buffer salts, and air-dried. The autoradiographs are obtained by 2-4 days exposure on Biomax MR film. Optical density measurements are obtained in several brain regions with the NIH Image 1.63 image analysis system.

p11 mRNA = settings: mice, 14 day treatment, once daily i.p., killed 1 hour after last injection
Procedure: For some experiments, brains from p11 KO mice and their wild-type counterparts are used. […] Animals are killed 1 hour after the last injection.
In situ hybridization probes are made by PCR amplification of nucleotides 1159-1420 of the coding sequence of the rat 5-HT1B receptor gene, nucleotides 1-293 of the coding sequence of the mouse or human p11 genes and nucleotides 1-287 of the coding sequence of the rat p11 gene, respectively. The different PCR fragments are subcloned into the pCRII-TOPO vector. With the exception of the studies on human tissue, 12-μm-thick cryostat sections are made for all studies. Sections are hybridized with [□^−35S]UTP-labeled riboprobe repared by in vitro transcription from cDNA corresponding to the rat 5-HT1B receptor gene or mouse, rat or human p11 gene as previously described (S5). After hybridization, the sections are exposed to Biomax MR film for 7 to 24 days and analyzed using the NIH Image 1.63 software. Unless indicated, analyses are made in the prelimbic/anterior cingulate cortex. Some sections are dipped into Ilford K5 emulsion for cellular analysis. After 8 weeks, the sections are developed, Nissl-stained and mounted.

AMPA receptors = test: Electrophysiology, fEPSP/PS in nucleus accumbens slices, CNQX; parameters: species or system mice; settings: 15 min after CNQX
Procedure: (§2) Male p11 KO and wild-type mice (4-7 weeks old) are decapitated under fluorothane anesthesia. Their brains are rapidly removed and coronal brain slices (400 μm thick), containing the nucleus accumbens, are prepared with a microslicer. Slices are incubated, for at least 1 h, at 32° C. in oxygenated (95% O2+5% CO2) artificial cerebrospinal fluid (aCSF) containing (in mM): 126 NaCl, 2.5 KCl, 1.2 NaH2PO4, 1.3 MgCl2, 2.4 CaCl2, 10 glucose and 26 NaHCO3, pH 7.4. Slices are transferred to a recording chamber mounted on an upright microscope and are continuously perfused with oxygenated aCSF at 28° C. Extracellular field potentials are recorded using a glass micropipette filled with aCSF positioned on the slice surface in the nucleus accumbens. Signals are amplified 500 times via an Axopatch 200B amplifier acquired at 10 kHz, filtered at 2 kHz and recorded on a Computer using acquisition and pClamp9 data analysis software. Synaptic responses are evoked with a concentric bipolar stimulating electrode placed near the recording electrode on the surface of the slice. […] Single stimuli (0.1 ms duration) are applied every 15 sec at an intensity yielding 50-70% maximal response as assessed by a stimulus/response curve established for each slice examined by measuring the amplitude of the field potential evoked by increasing stimulus intensities. […] Numerical values are expressed as means […]SEM. […]

5-HT1B receptor [1] = biological target: T2, 5-HT1B receptor (Mus musculus, UniProt P28334); test: Quantitative receptor autoradiography, [125I]cyanopindolol binding and serotonin displacement; parameters: Cryostat sections (12 μm thick) are made from p11 KO and wild-type mice; from tissue; host or cells: mouse brain cryostat sections (globus pallidus, substantia nigra); wild-type, p11 KO and p11 transgenic mice; species or system mice
T2 sequence (P28334 whole entry): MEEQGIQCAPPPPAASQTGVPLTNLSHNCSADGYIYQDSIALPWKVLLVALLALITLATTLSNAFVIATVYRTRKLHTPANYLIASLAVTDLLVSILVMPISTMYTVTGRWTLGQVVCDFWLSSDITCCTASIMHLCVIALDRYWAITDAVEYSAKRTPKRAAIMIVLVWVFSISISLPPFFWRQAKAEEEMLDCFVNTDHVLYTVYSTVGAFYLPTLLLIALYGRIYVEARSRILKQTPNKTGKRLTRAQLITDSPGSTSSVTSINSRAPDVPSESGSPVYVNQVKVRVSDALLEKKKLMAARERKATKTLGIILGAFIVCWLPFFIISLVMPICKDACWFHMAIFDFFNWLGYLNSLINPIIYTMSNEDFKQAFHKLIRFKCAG
Procedure: Cryostat sections (12 μm thick) are made from p11 KO and wild-type mice. 5-HT1B receptors are detected by incubating the sections in 170 mM Tris/150 mM NaCl pH 7.4 (25° C.) containing the antagonist [^125I]cyanopindolol (0.3, 1, 3, 10, 30, 100 pM; 2200 Ci/mmol), 100 nM 8-OH-DPAT as a 5-HT1A blocker, and 30 μM isoproterenol, as β-adrenergic receptor blocker, for two hours (S9). Non-specific binding is determined by measurements in the presence of 100 μM serotonin. In displacement experiments, increasing concentrations of serotonin (0, 0.3, 1, 3, 10, 30, 100, 300, 1000, 10000 nM) are incubated with 10 pM [^125I]cyanopindolol as described above. […] At the end of all autoradiographic experiments, sections are rinsed 2×5 min in their corresponding cold binding buffers, dipped in distilled water at 4° C. and dried under cold air. The sections are apposed to Biomax MR films for 3-5 days ([^125I]cyanopindolol) or 4-10 weeks ([^3H]GR125743, [^3H]8-OHDPAT, ^3H]SCH23390, [^3H]raclopride) together with ^[125I] or [^3H] microscales. Optical density measurements are obtained in several brain regions with the NIH Image 1.63 image analysis system. Specific binding is calculated by digital subtraction of nonspecific labeling from total binding. Standard curves generated from [^3H] or [^125I] microscales are used to convert optical densities into femtomoles per milligram of protein. Data obtained from saturation and displacement experiments are analyzed using non-linear regression equations.

phospho-Ser9-synapsin I = test: Western blotting of phosphorylated synapsin I in brain slices; assay type: cell-based; settings: striatal slices from p11 KO mice, 50 μM, 2 min
Procedure: Slices (300 μm) from the striatum are prepared from wild-type and p11 KO mice as described (S10). The slices are preincubated in Krebs buffer (118 mM NaCl/4.7 mM KCl/1.5 mM […]/1.2 mM KH2PO4/25 mM NaHCO3/11.7 mM glucose/1.3 mM CaCl2) at 30° C. under constant oxygenation (95% O2/5% CO2) for 60 min, with a change of buffer after […]. Slices are treated with vehicle or anpirtoline (50 μM) for 2 min. After drug treatment, the buffer is removed, the slices are rapidly frozen on dry ice, sonicated in 1% SDS and boiled for 10 min. Small aliquots of the homogenate are retained for protein determination by the bicinchoninic acid protein assay method. Equal amounts of protein are processed by using 10% acrylamide gels. Immunoblotting is carried out with a phosphorylation-state-specific rabbit polyclonal antibody against phospho-Ser9-synapsin I, a site that is phosphorylated by PKA and CamKII, or a rabbit polyclonal synapsin antibody that is not phosphorylation-state-specific. Antibody binding is detected by enhanced chemiluminescence and quantified by densitometry, using National Institutes of Health IMAGE 1.63 software. The level of the phosphorylated form of synapsin is normalized to its total level. All data are presented as normalized levels.

thigmotaxis = test: Open-field analysis (thigmotaxis); assay type: in vivo; settings: wild-type mice treated long-term with imipramine; anpirtoline 5 mg/kg i.p., 15 min postinjection
Procedure: Horizontal activities are measured for 30 minutes (results are analyzed every 5 min period) during daytime in a fully computerized, multicage, red and infrared-sensitive motion detection system. The peripheral activity values are divided […] by the total horizontal activity values to determine thigmotaxis. In experiments with anpirtoline (5 mg/kg, i.p.) animals are tested 15 min postinjection. Some anpirtolinetreated mice had received daily injections with imipramine (10 mg/kg, i.p.) for 4 weeks until the day before the experiment.

5-HT1B receptor [2] = biological target: T2, 5-HT1B receptor; test: [35S]GTPγS binding in response to 5-HT1B receptor stimulation; assay type: biochemical; parameters: Cryostat sections (12 μm thick) are made from p11 KO and wild-type mice; from tissue; host or cells: mouse brain cryostat sections (globus pallidus, substantia nigra); wild-type, p11 KO and p11 transgenic mice; settings: p11 KO mice, 50 μM agonist
Procedure: as §1

immobility = test: Tail suspension test; assay type: in vivo; settings: p11 KO mice compared with wild-type mice after acute treatment, 15 minutes postinjection
Procedure: The tail suspension test, a model of antidepressant-like activity, is carried out as described (S11) and is a modified version of that validated for C57B16 (S12) and NMRI mice (S13). Mice are individually suspended by the tail to a horizontal bar (distance from floor is 35 cm) using adhesive tape (distance from tip of tail is 2 cm). […] A 6-min test session is videotaped and scored by an observer who is unaware of the genotype. The parameter recorded is the number of seconds spent immobile. In experiments with anpirtoline (5 mg/kg) and imipramine (10 mg/kg), animals are tested 15 minutes postinjection.

[3] = system: phospho-Thr202/Tyr204-ERK1/2; test: Western blotting of phosphorylated ERK1/2 in primary cortical cultures; assay type: cell-based; settings: primary cortical cultures from p11 KO mice, 10 μM, 15 minutes
Procedure: Cortices are removed from E18 mice generated from WT×WT or p11KO×p11KO breedings, trypsinized (0.25%), dissociated by trituration and plated onto poly-L-lysine (1 mg/ml) coated six-well plates. The cultures (500,000 cells/ml) are grown in medium containing DMEM with 5% fetal bovine serum, 4 mM L-glutamine, B-27 nutrient supplement, penicillin (5 U/ml), and streptomycin (5 μg/ml). After two weeks, the cultures are treated with vehicle, serotonin (10 μM) or anpirtoline (10 μM) for 15 minutes. At the end of the treatment, the drug-containing medium is removed, the wells rinsed in ice-cold PBS, the neurons removed by a cell scraper and frozen in liquid nitrogen. Frozen cell samples are sonicated in 1% SDS and boiled for 10 min. Small aliquots of the homogenate are retained for protein determination by the bicinchoninic acid protein assay method. Equal amounts of protein are processed by using 10% acrylamide gels, as described (S10). Immunoblotting is carried out with a phosphorylation-state-specific antibody against phospho-Thr202/Tyr204-ERK1/2 or an antibody that is not phosphorylation-state-specific against total ERK1/2. Antibody binding is detected by enhanced chemiluminescence and quantified by densitometry, using National Institutes of Health IMAGE 1.63 software. The level of the phosphorylated form of ERK1/2 is normalized to its total level. All data are presented as normalized levels.

p11 = p11 expression in PBMC of monkeys receiving fluoxetine; assay type: in vivo
5-HT1B receptor [4] = biological target: T3, 5-HT1B receptor (Homo sapiens, UniProt P28222); test: cAMP measurements in COS 7 cells; assay type: cell-based
T3 construct: V5 (C); expressed in transfected cells; host or cells: COS 7
T3 sequence (P28222 whole entry): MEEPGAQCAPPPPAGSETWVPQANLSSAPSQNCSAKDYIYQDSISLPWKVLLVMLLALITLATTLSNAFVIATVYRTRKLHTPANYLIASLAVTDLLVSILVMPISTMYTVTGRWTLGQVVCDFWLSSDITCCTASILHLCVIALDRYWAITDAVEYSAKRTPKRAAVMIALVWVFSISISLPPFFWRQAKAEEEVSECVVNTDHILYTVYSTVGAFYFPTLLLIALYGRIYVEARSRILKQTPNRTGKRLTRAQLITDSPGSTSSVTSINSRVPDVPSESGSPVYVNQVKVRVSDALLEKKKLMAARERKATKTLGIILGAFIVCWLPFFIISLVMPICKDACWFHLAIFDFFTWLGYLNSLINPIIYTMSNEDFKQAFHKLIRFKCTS
Procedure: COS 7 cells grown in DMEM medium are transfected with 5-HT1B receptors and/or p11. Thirty six hours later the cells are pretreated with theophylline (5 mM) and pargyline (10 μM) for 15 min. Vehicle or forskolin (10 μM) with or without serotonin (10 μM), is then added for another 15 minutes. At the end of the treatment, the drug-containing medium is removed, the wells rinsed in PBS and the cells harvested. cAMP formation is quantitated by a direct cAMP enzyme immunoassay kit according to the manufacturers instructions.

5-HT1B receptor [5] = biological target: T2, 5-HT1B receptor; test: Electrophysiology, fEPSP/PS in nucleus accumbens slices, serotonin; settings: slices from WT mice; serotonin 50 μM in the presence of 10 μM fluoxetine
Procedure: as §2

Compound: CCCN(CCC)C1CCc2cccc(O)c2C1 (racemic) [8-OH-DPAT, (+/−)-8-hydroxy-2-(di-n-propylamino)tetralin]
[35S]GTP-S binding (5-HT1A receptor; p11 KO mice): 5.0±2.0 optical density units
[35S]GTP-S binding (5-HT1A receptor; wild-type mice): 6.0±2.1 optical density units

Compound: N[C@@H]1C[C@H]1c1ccccc1 (racemic) [tranylcypromine]
p11 mRNA in the forebrain (p11 mRNA): upregulation of p11 mRNA

f EPSP/population spike (PS) reduction compared with baseline (AMPA receptors; p11 KO mice): 81%
f EPSP/population spike (PS) reduction compared with baseline (AMPA receptors; wild-type mice): 77%
Compound: N#Cc1cc2c(cc1[N+](=O)[O-])=NC(=O)C(=O)N=2 [CNQX, 6-cyano-7-nitroquinoxaline-2,3-dione]

Compound: CC(C)(C)NCC(O)COc1cccc2[nH]c(C#N)c([125I])c12 (centres unmarked) [[^125I]iodocyanopindolol]
binding in substantia nigra pars reticulata (5-HT1B receptor [1]; p11 KO mice): 77.3±5.8 fmol/mg protein
binding in substantia nigra pars reticulata (5-HT1B receptor [1]; wild-type mice): 98.8±6.2 fmol/mg protein

Compound: Clc1cccc(SC2CCNCC2)n1 [anpirtoline]
decrease of phospho-Ser9-synapsin I (phospho-Ser9-synapsin I): loss of ability
thigmotaxis (thigmotaxis): significant reduction in thigmotaxis
ability to increase [35S]GTP-S binding in globus pallidus (5-HT1B receptor [2]): reduced ability
immobility in the tail suspension test (immobility): increased immobility
down-regulation of phospho-Thr202/Tyr204-ERK1/2 levels [3]: loss of ability

Compound: CNCCC(Oc1ccc(C(F)(F)F)cc1)c1ccccc1 (centres unmarked) [fluoxetine]
increase in p11 expression in peripheral blood mononuclear cells (PBMC) (p11): more than twofold

Compound: O=C(CCCN1CCC(O)(c2ccc(Cl)cc2)CC1)c1ccc(F)cc1 [haloperidol]
p11 mRNA in the forebrain (p11 mRNA): not

Compound: CN(C)CCCN1c2ccccc2CCc2ccccc21 [imipramine]
p11 mRNA in the forebrain (p11 mRNA): upregulation of p11 mRNA
immobility in the tail suspension test (immobility): increased immobility

Compound: Cc1nc2n(c(=O)c1CCN1CCC(c3noc4cc(F)ccc34)CC1)CCCC2 [risperidone]
p11 mRNA in the forebrain (p11 mRNA): not

Compound: NCCc1c[nH]c2ccc(O)cc12 [serotonin, 5-hydroxy-tryptamine]
EC50 (5-HT1B receptor [1]): 52 nM
EC50 (5-HT1B receptor [1]; median effective concentration (EC50) to displace bound [125I]iodocyanopindolol, wild-type mice, brain sections): 57 nM
ability to counteract forskolin-induced cAMP formation (5-HT1B receptor [4]; COS-7 cells transfected with the 5-HT1B receptor, in the presence of cotransfected p11, serotonin (10 µM)): increased
cAMP formation in untransfected COS 7 cells (5-HT1B receptor [4]; control experiments, untransfected cells): does not alter cAMP formation
down-regulation of phospho-Thr202/Tyr204-ERK1/2 levels [3]: loss of ability
amplitude of the fEPSP/PS (5-HT1B receptor [5]): depresses the amplitude

From patent publication US8470548B2, “Diagnosis of depression” (Intra-Cellular Therapies, Inc., priority 2006, dated 2013)
